The compounds below were run against T1, bovine cardiac myosin (Bos taurus, UniProt Q9BE39) (assay: Myosin inhibition assay (PK/LDH-coupled ATPase, bovine cardiac myofibrils)). Conditions: not given.
T1 construct: The source of cardiac myosin was from bovine heart in the form of skinned myofibrils; from tissue; host or cells: bovine heart, skinned myofibrils
Format: biochemical

T1 sequence (Q9BE39 whole entry): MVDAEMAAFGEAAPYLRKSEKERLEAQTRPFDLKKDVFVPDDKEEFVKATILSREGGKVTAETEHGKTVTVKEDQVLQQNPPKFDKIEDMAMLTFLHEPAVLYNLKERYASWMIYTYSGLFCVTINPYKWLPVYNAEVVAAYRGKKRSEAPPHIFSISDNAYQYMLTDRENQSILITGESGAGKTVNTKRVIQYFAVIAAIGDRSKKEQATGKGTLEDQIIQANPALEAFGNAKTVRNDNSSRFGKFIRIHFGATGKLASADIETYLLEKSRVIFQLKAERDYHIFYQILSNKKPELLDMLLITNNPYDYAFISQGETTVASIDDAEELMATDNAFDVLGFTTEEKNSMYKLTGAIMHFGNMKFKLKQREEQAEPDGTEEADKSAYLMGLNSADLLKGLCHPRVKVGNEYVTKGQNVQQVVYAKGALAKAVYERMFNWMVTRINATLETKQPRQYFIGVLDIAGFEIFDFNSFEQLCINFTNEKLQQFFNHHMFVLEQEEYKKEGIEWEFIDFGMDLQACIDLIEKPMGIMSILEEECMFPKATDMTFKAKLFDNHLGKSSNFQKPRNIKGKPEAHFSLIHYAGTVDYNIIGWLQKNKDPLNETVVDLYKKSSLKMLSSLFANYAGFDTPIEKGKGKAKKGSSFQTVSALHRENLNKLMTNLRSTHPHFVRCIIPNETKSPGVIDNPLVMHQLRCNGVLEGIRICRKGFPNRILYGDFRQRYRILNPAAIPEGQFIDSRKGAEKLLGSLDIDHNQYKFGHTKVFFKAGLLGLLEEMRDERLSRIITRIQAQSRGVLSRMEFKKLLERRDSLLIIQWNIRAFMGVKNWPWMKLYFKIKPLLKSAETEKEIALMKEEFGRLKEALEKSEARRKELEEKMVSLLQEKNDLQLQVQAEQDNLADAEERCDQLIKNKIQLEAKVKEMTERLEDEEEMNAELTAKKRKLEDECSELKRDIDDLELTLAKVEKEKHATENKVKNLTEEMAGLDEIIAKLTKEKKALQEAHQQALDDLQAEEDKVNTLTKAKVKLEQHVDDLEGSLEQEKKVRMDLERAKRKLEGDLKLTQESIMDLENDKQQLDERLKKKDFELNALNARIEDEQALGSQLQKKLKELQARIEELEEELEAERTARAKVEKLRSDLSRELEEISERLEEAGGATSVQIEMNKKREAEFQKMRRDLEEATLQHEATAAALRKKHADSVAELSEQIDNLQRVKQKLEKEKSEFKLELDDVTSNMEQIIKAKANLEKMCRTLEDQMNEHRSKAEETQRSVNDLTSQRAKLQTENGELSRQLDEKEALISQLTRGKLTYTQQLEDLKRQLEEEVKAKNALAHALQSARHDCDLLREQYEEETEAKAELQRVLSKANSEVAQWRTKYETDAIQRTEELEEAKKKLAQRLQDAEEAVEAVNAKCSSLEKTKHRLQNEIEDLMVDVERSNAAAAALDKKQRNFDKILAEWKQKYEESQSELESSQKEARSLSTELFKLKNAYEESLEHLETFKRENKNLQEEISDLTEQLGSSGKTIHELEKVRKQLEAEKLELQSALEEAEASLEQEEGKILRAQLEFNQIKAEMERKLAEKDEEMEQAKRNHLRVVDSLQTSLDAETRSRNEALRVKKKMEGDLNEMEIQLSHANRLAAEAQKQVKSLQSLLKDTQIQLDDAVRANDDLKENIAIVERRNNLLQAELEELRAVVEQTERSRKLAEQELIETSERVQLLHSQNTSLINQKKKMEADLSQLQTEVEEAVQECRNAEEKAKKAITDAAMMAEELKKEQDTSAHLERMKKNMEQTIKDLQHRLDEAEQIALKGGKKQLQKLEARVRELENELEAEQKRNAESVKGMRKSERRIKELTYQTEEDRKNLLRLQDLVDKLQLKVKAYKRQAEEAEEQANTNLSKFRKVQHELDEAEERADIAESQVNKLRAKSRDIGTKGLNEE
T1 sequence (P85100 whole entry partner): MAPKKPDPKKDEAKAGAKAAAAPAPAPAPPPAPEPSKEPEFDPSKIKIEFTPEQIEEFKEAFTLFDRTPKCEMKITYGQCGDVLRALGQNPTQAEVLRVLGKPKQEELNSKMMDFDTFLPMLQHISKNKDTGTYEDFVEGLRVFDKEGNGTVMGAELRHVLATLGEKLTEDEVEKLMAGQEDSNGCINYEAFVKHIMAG
T1 sequence (Q3SZE5 whole entry partner): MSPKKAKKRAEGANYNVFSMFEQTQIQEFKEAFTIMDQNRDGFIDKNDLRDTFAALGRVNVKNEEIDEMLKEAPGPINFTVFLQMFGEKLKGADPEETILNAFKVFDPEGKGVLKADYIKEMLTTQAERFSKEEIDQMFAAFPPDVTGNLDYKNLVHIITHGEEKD

In the case of `CC(C)n1c(=O)cc(N[C@@H](C)Cc2ccc(F)cc2)[nH]c1=O` [Compound 51, (S)-6-((1-(4-fluorophenyl)propan-2-yl)amino)-3-isopropylpyrimidine-2,4(1H,3H)-dione], the IC50 is reported as 1 to 15 µM.

Same assay, conditions: bovine cardiac myofibrils, calcium giving 50% activation (pCa50); read-out: Biochemical Activity (pCa50)

`CC(C)n1c(=O)cc(N[C@@H](C)c2cccc(Br)c2)[nH]c1=O` [Compound 35] and `CC(C)n1c(=O)cc(N[C@@H](C)c2ccc(O)cc2)[nH]c1=O` [Compound 63, (S)-6-((1-(4-hydroxyphenyl)ethyl)amino)-3-isopropylpyrimidine-2,4(1H,3H)-dione] cannot be ordered by IC50: < 1 µM for the first, < 1 µM for the second.

`CC[C@H](Nc1cc(=O)n(CC)c(=O)[nH]1)c1ccccc1` [Compound 36] and `C[C@H](Nc1cc(=O)n([C@H](C)CO)c(=O)[nH]1)c1ccccc1` [Compound 54, 3-((R)-1-hydroxypropan-2-yl)-6-(((S)-1-phenylethyl)amino)pyrimidine-2,4(1H,3H)-dione] fall in the same range of IC50: 1 to 15 µM for the first, 1 to 15 µM for the second.

First: C[C@H](Nc1cc(=O)n(-c2ccccn2)c(=O)[nH]1)c1ccccc1 [Compound 38]
Second: C[C@H](Nc1cc(=O)n(Cc2ccccc2)c(=O)[nH]1)c1ccccc1 [Compound 57, (S)-3-benzyl-6-((1-phenylethyl)amino)pyrimidine-2,4(1H,3H)-dione]
The IC50 of the first is lower: < 1 µM for the first, 1 to 15 µM for the second. The first is the more potent here.

`CC(C)n1c(=O)cc(N[C@@H](C)c2ccc(OCc3ccccc3)cc2)[nH]c1=O` [Compound 62, (S)-6-((1-(4-(benzyloxy)phenyl)ethyl)amino)-3-isopropylpyrimidine-2,4(1H,3H)-dione] was tested, and the IC50 was < 1 µM.

Same assay, conditions: bovine cardiac myofibrils, calcium giving 75% activation (pCa75); read-out: Biochemical Activity (pCa75)

Compared with `CC(C)n1c(=O)[nH]c(N[C@@H](C)c2ccccc2)c(Br)c1=O` [Compound 3, (S)-5-Bromo-3-isopropyl-6-((1-phenylethyl)amino)pyrimidine-2,4(1H,3H)-dione], `Cc1c(N[C@@H](C)c2ccccc2)[nH]c(=O)n(C(C)C)c1=O` [Compound 25] is higher in IC50: < 1 µM for the first, > 15 µM for the second. The first is the more potent here.

`CC(C)n1c(=O)[nH]c(N[C@@H](C)c2cccc(Cl)c2)c(F)c1=O` [Compound 4, (S)-6-((1-(3-Chlorophenyl)ethyl)amino)-5-fluoro-3-isopropylpyrimidine-2,4(1H,3H)-dione] and `CC(C)n1c(=O)[nH]c(N[C@@H](C)c2cccc(F)c2)c(F)c1=O` [Compound 32] cannot be ordered by IC50: < 1 µM for the first, < 1 µM for the second.

`CC(C)n1c(=O)cc(N[C@@H](C)c2cc(F)cc(F)c2)[nH]c1=O` [Compound 5, (S)-6-((1-(3,5-Difluorophenyl)ethyl)amino)-3-isopropylpyrimidine-2,4(1H,3H)-dione] and `CC(C)n1c(=O)cc(N[C@@H](C)c2cc(F)ccc2F)[nH]c1=O` [Compound 34] cannot be ordered by IC50: < 1 µM for the first, < 1 µM for the second.

`CC(C)n1c(=O)cc(N[C@H](c2ccccc2)C2CC2)[nH]c1=O` [Compound 6, (S)-6-((Cyclopropyl(phenyl)methyl)amino)-3-isopropylpyrimidine-2,4(1H,3H)-dione] and `CC(C)n1c(=O)cc(N[C@H](c2ccccc2)C2CCC2)[nH]c1=O` [Compound 8, (S)-6-((Cyclobutyl(phenyl)methyl)amino)-3-isopropylpyrimidine-2,4(1H,3H)-dione] cannot be ordered by IC50: < 1 µM for the first, < 1 µM for the second.

`COc1cccc([C@@H](Nc2cc(=O)n(C(C)C)c(=O)[nH]2)C2CC2)c1` [Compound 7, (S)-6-((cyclopropyl(3-methoxyphenyl)methyl)amino)-3-isopropylpyrimidine-2,4(1H,3H)-dione] and `COc1cccc([C@H](C)Nc2cc(=O)n(C(C)C)c(=O)[nH]2)c1` [Compound 21] cannot be ordered by IC50: < 1 µM for the first, < 1 µM for the second.

First: C[C@H](Nc1cc(=O)n(C2CCOCC2)c(=O)[nH]1)c1ccccc1 [Compound 9, (S)-6-((1-phenylethyl)amino)-3-(tetrahydro-2H-pyran-4-yl)pyrimidine-2,4(1H,3H)-dione]
Second: C[C@H](Nc1cc(=O)n(C2CCOC2)c(=O)[nH]1)c1ccccc1 (stereo partly drawn) [Compound 11, 6-(((S)-1-phenylethyl)amino)-3-(tetrahydrofuran-3-yl)pyrimidine-2,4(1H,3H)-dione]
The IC50 of the first is lower: < 1 µM for the first, 1 to 15 µM for the second.

Compared with `COc1cccc([C@H](C)Nc2cc(=O)n(C3CCOCC3)c(=O)[nH]2)c1` [Compound 10, (S)-6-((1-(3-methoxyphenyl)ethyl)amino)-3-(tetrahydro-2H-pyran-4-yl)pyrimidine-2,4(1H,3H)-dione], `C[C@H](Nc1cc(=O)n(C2CC2)c(=O)[nH]1)c1ccccc1` [Compound 37] is higher in IC50: < 1 µM for the first, 1 to 15 µM for the second. The first is the more potent here.

`COC(=O)N1CCC(n2c(=O)cc(N[C@@H](C)c3ccccc3)[nH]c2=O)CC1` [Compound 13, (S)-methyl 4-(2,6-dioxo-4-(1-phenylethylamino)-2,3-dihydropyrimidin-1(6H)-yl)piperidine-1-carboxylate] and `C[C@H](Nc1cc(=O)n(C2CCCCC2)c(=O)[nH]1)c1ccccc1` [Compound 44] cannot be ordered by IC50: < 1 µM for the first, < 1 µM for the second.

`CC[C@@H](C)n1c(=O)cc(N[C@@H](C)c2cccc(OC)c2)[nH]c1=O` [Compound 14, 3-(R)-sec-butyl-6-((S)-1-(3-methoxyphenyl)ethylamino)pyrimidine-2,4(1H,3H)-dione] and `Cc1cccc([C@H](C)Nc2cc(=O)n(C(C)C)c(=O)[nH]2)c1` [Compound 50, (S)-3-isopropyl-6-((1-(m-tolyl)ethyl)amino)pyrimidine-2,4(1H,3H)-dione] cannot be ordered by IC50: < 1 µM for the first, < 1 µM for the second.

`C[C@H](Nc1cc(=O)n(-c2cccnc2)c(=O)[nH]1)c1ccccc1` [Compound 15, (S)-6-(1-phenylethylamino)-3-(pyridin-3-yl)pyrimidine-2,4(1H,3H)-dione] and `C[C@H](Nc1cc(=O)n(-c2ccccn2)c(=O)[nH]1)c1ccccc1` [Compound 38] cannot be ordered by IC50: < 1 µM for the first, < 1 µM for the second.

Compared with `C[C@H](Nc1cc(=O)n(-c2ccon2)c(=O)[nH]1)c1ccccc1` [Compound 16, (S)-3-(Isoxazol-3-yl)-6-(1-phenylethylamino)pyrimidine-2,4(1H,3H)-dione], `C[C@H](Nc1cc(=O)n(-c2ccn(C)n2)c(=O)[nH]1)c1ccccc1` [Compound 39] is lower in IC50: 1 to 15 µM for the first, < 1 µM for the second.

`CC(C)n1c(=O)cc(N[C@@H](C)c2cccc(-n3cccn3)c2)[nH]c1=O` [Compound 17, (S)-6-((1-(3-(1H-pyrazol-1-yl)phenyl)ethyl)amino)-3-isopropylpyrimidine-2,4(1H,3H)-dione] and `CC(C)n1c(=O)cc(N[C@@H](C)c2cccc(-n3cncn3)c2)[nH]c1=O` [Compound 41] cannot be ordered by IC50: < 1 µM for the first, < 1 µM for the second.

First: COc1ccccc1[C@H](C)Nc1cc(=O)n(C(C)C)c(=O)[nH]1 [Compound 22]
Second: CC(C)n1c(=O)cc(N[C@@H](C)c2ccccc2F)[nH]c1=O [Compound 26]
The IC50 of the first is higher: 1 to 15 µM for the first, < 1 µM for the second. The second is the more potent here.

`CC[C@H](Nc1cc(=O)n(C(C)C)c(=O)[nH]1)c1ccccc1` [Compound 24] and `COC[C@H](Nc1cc(=O)n(C(C)C)c(=O)[nH]1)c1ccccc1` [Compound 29] cannot be ordered by IC50: < 1 µM for the first, < 1 µM for the second.

`CC(C)n1c(=O)cc(N[C@@H](C)c2cccc(Cl)c2)[nH]c1=O` [Compound 28] and `CC(C)n1c(=O)cc(N[C@@H](C)c2cccc(Br)c2)[nH]c1=O` [Compound 35] cannot be ordered by IC50: < 1 µM for the first, < 1 µM for the second.

`CC(C)n1c(=O)cc(N[C@@H](C)c2ccc(F)cc2)[nH]c1=O` [Compound 30] and `CC(C)n1c(=O)cc(N[C@@H](C)c2cccc(C(F)(F)F)c2)[nH]c1=O` [Compound 55, (S)-3-isopropyl-6-((1-(3-(trifluoromethyl)phenyl)ethyl)amino) pyrimidine-2,4(1H,3H)-dione] cannot be ordered by IC50: < 1 µM for the first, < 1 µM for the second.

`CC[C@H](Nc1[nH]c(=O)n(C(C)C)c(=O)c1F)c1ccccc1` [Compound 31] and `COc1cccc([C@H](C)Nc2[nH]c(=O)n(C(C)C)c(=O)c2F)c1` [Compound 33] cannot be ordered by IC50: < 1 µM for the first, < 1 µM for the second.

`C[C@H](Nc1cc(=O)n(-c2ccno2)c(=O)[nH]1)c1ccccc1` [Compound 40] and `C[C@H](Nc1cc(=O)n(-c2c(F)cccc2F)c(=O)[nH]1)c1ccccc1` [Compound 58, (S)-3-(2,6-difluorophenyl)-6-((1-phenylethyl)amino)pyrimidine-2,4(1H,3H)-dione] cannot be ordered by IC50: < 1 µM for the first, < 1 µM for the second.

`Cc1nccn1-c1cccc([C@H](C)Nc2cc(=O)n(C(C)C)c(=O)[nH]2)c1` [Compound 42] and `CC(C)n1c(=O)cc(N[C@@H](C)c2cccc(N3CCOC3=O)c2)[nH]c1=O` [Compound 43] cannot be ordered by IC50: < 1 µM for the first, < 1 µM for the second.

`CCn1c(=O)cc(N[C@@H](C)c2ccccc2)[nH]c1=O` [Compound 46] and `C[C@H](Nc1cc(=O)n(C)c(=O)[nH]1)c1ccccc1` [Compound 47] fall in the same range of IC50: 1 to 15 µM for the first, 1 to 15 µM for the second.

Compared with `CC(C)n1c(=O)cc(N[C@H](c2ccccc2)C(F)(F)F)[nH]c1=O` [Compound 52, (R)-3-isopropyl-6-((2,2,2-trifluoro-1-phenylethyl)amino)pyrimidine-2,4(1H,3H)-dione], `C[C@H](Nc1cc(=O)n([C@H](C)CO)c(=O)[nH]1)c1ccccc1` [Compound 54, 3-((R)-1-hydroxypropan-2-yl)-6-(((S)-1-phenylethyl)amino)pyrimidine-2,4(1H,3H)-dione] is higher in IC50: < 1 µM for the first, 1 to 15 µM for the second.

First: C[C@H](Nc1cc(=O)n([C@H](C)COCc2ccccc2)c(=O)[nH]1)c1ccccc1 [Compound 53, 3-((R)-1-(benzyloxy)propan-2-yl)-6-(((S)-1-phenylethyl)amino)pyrimidine-2,4(1H,3H)-dione]
Second: CC(C)n1c(=O)cc(N[C@@H](C)c2ccccc2C#N)[nH]c1=O [Compound 56, (S)-3-isopropyl-6-((1-(2-cyanophenyl)ethyl)amino)pyrimidine-2,4(1H,3H)-dione]
The IC50 of the first is lower: 1 to 15 µM for the first, > 15 µM for the second.

Compared with `CC(C)n1c(=O)cc(N[C@@H](C)c2c(F)cccc2F)[nH]c1=O` [Compound 59, (S)-6-((1-(2,6-difluorophenyl)ethyl)amino)-3-isopropylpyrimidine-2,4(1H,3H)-dione], `CC(C)n1c(=O)cc(N[C@@H](C)Cc2ccncc2)[nH]c1=O` [Compound 61, (S)-3-isopropyl-6-((1-(pyridin-4-yl)propan-2-yl)amino)pyrimidine-2,4(1H,3H)-dione] is higher in IC50: < 1 µM for the first, 1 to 15 µM for the second. The first is the more potent here.

Same assay, conditions: pCa75; assay conducted using 0.5 μM myosin, IC50 values below 1.0 μM are approximate; read-out: IC50 (pCa75)

Compared with `COc1cccc([C@@H](C)Nc2cc(=O)n(C(C)C)c(=O)[nH]2)c1` [Compound 20R], `COc1cccc([C@H](C)Nc2cc(=O)n(C(C)C)c(=O)[nH]2)c1` [Compound 21] is 50-fold lower in IC50: 19.6 µM for the first, 0.39 µM for the second.

Compared with `CC(C)n1c(=O)cc(N[C@@H](C)c2c(F)cccc2F)[nH]c1=O` [Compound 59, (S)-6-((1-(2,6-difluorophenyl)ethyl)amino)-3-isopropylpyrimidine-2,4(1H,3H)-dione], `CC(C)n1c(=O)cc(N[C@H](C)c2c(F)cccc2F)[nH]c1=O` [Compound 60R, (R)-6-((1-(2,6-difluorophenyl)ethyl)amino)-3-isopropylpyrimidine-2,4(1H,3H)-dione] is higher in IC50: 0.45 µM for the first, > 39.2 µM for the second. The first is the more potent here.

— patent USRE50050E1, “Pyrimidinedione compounds” (MyoKardia, Inc., priority 2013, dated 2024)
